According to patent US10287300B2 (Merck Patent GmbH, priority 2012, dated 2019):

Legend:
[1] = biological target: P70S6K (T412E mutant, Millipore) (Homo sapiens (Human), UniProt P23443, T412E); experiment: P70S6K enzyme assay; assay type: biochemical; conditions: 24 μM ATP, 90 min at 25° C.
Procedure: P70S6K inhibitor compounds were diluted and plated in 96 well plates. A reaction mixture including the following components was then added to the compound plate to initiate the enzyme reaction; P70S6K (3 nM, T412E mutant, Millipore) was mixed with 24 μM ATP in an assay buffer containing 100 mM Hepes (pH 7.5), 5 mM MgCl2, 1 mM DTT, 0.015% Brij and 1 μM of the substrate peptide FITC-AHA-AKRRRLSSLRA-OH (derived from the S6 ribosomal protein sequence, FITC=fluorescein isothiocyanate, AHA=6-aminohexanoic acid). The reaction was incubated for 90 min at 25° C., before the addition of 10 mM EDTA to stop the reaction. The proportion of substrate and product (phosphorylated) peptide was analysed on a Caliper Life Sciences Lab Chip 3000, using a pressure of −1.4 psi, and upstream and downstream voltages of −3000 and −700 respectively. Product peaks were resolved before substrate peaks on the resulting chromatograms.

[2] = biological target: His-AKT (Full Length) (Homo sapiens (Human), UniProt P31749); experiment: AKT enzyme assay; assay type: biochemical; conditions: 160 uM ATP, 90 min at 25° C.
Procedure: A TTP Mosquito liquid handling instrument was used to place 125 nl of the appropriate concentration of inhibitor in 100% DMSO (for a dose response curve calculation) into each well of a 384-well plate. To this reaction components were added to a final volume of 12.5 μl: • 0.1 ng/μl His-AKT (Full Length), (Invitrogen, Part # P2999, Lot #641228C). • 160 uM ATP (Fluka, 02055) • 1 mM DTT (Sigma, D0632) • 1 mM MgCl2 (Sigma, M1028) • 1 μM substrate peptide (sequence FITC-AHA-GRPRTSSFAEG-NH2), • synthesized by Tufts Peptide Synthesis service. • 100 mM HEPES pH 7.5 (Calbiochem, 391338) • 0.015% Brij-35 (Sigma, B4184)
The reaction was incubated for 90 min at 25° C., and then stopped by the addition of 70 μl of Stop buffer (100 mM HEPES pH 7.5, 0.015% Brij-35, 10 mM EDTA (Sigma, E7889)).
The plate was read on a Caliper LC 3000 in an Off-Chip mobility shift assay format, using the following parameters for a 12-sipper chip: screening pressure −2.3 psi, upstream voltage −500, and downstream voltage −3000. These conditions caused unphosphorylated substrate and phosphorylated product peptide to resolve as separate peaks allowing direct measurement of percentage of conversion of substrate to product. The percent conversion was plotted against concentration of inhibitor to produce a sigmoidal dose response curve, from which an IC50 was calculated.

Sequence of P70S6K (T412E mutant, Millipore) (P23443 whole entry T412E): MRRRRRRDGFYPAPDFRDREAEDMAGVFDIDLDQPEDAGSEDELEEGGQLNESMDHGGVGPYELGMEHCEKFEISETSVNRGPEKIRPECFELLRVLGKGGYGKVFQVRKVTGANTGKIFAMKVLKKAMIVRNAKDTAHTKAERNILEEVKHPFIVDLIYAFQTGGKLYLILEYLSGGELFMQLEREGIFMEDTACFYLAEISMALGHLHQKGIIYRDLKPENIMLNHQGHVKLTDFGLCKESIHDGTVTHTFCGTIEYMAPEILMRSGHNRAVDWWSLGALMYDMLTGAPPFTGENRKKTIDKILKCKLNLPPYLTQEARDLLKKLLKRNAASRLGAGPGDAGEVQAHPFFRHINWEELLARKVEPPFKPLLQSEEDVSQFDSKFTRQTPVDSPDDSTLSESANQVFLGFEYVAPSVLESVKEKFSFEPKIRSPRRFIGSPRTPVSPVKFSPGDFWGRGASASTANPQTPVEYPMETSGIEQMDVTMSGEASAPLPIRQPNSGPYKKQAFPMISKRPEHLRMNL
Sequence of His-AKT (Full Length) (P31749 whole entry): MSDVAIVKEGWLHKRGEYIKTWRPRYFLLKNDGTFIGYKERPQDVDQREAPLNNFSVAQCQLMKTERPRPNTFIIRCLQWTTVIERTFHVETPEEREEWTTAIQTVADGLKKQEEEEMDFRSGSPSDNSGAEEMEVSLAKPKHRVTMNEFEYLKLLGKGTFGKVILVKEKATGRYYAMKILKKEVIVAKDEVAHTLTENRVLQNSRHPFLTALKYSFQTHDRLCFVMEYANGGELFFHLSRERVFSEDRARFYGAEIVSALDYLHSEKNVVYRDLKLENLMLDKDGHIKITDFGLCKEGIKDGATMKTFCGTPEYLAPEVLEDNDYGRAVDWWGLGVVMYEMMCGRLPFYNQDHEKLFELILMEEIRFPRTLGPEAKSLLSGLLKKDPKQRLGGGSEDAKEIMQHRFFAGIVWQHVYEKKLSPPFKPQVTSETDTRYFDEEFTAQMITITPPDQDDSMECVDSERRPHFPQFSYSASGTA

Compound | IC50 [1] | IC50 [2]
O=C1CNc2ncnc(N3CCN(C(CN4CCCC4)c4ccc(Cl)c(F)c4)CC3)c2N1 (stereo not shown) [Compound A61, 4-(4-(1-(4-chloro-3-fluorophenyl)-2-(pyrrolidin-1-yl)ethyl)piperazin-1-yl)-7,8-dihydropteridin-6(5H)-one] | > 1000 nM | 101 to 500 nM
O=C1CNc2ncnc(N3CCN(C(CN4CCCCC4)c4ccc(C(F)(F)F)cc4)CC3)c2N1 (stereo not shown) [Compound A33, 4-{4-[1-(4-trifluoro-phenyl)-2-(piperidin-yl)-ethyl]-piperazin-1-yl}-7,8-dihydro-5H-pteridin-6-one] | > 1000 nM | 501 to 1000 nM
CNCC(c1ccc(Cl)c(F)c1)N1CCN(c2ncnc3c2NC(=O)CN3)CC1 (stereo not shown) [Compound A59, 4-(4-(1-(4-chloro-3-fluorophenyl)-2-(methylamino)ethyl)piperazin-1-yl)-7,8-dihydropteridin-6(5H)-one] | > 1000 nM | > 1000 nM
Cc1ccc(C(CNCCN(C)C)N2CCN(c3ncnc4c3NC(=O)CN4)CC2)cc1 (stereo not shown) [Compound A65, 4-(4-(2-((2-(dimethylamino)ethyl)amino)-1-(p-tolyl)ethyl)piperazin-1-yl)-7,8-dihydropteridin-6(5H)-one] | > 1000 nM | > 1000 nM
O=C1CNc2ncnc(N3CCN(C(CN4CCC4)c4ccc(F)c(Cl)c4)CC3)c2N1 (stereo not shown) [Compound A55, 4-(4-(2-(azetidin-1-yl)-1-(3-chloro-4-fluorophenyl)ethyl)piperazin-1-yl)-7,8-dihydropteridin-6(5H)-one] | > 1000 nM | > 1000 nM
NCC(c1ccc(Cl)cc1)N1CCN(c2ncnc3c2CCN3)CC1 (stereo not shown) [Compound A13, 2-(4-Chloro-phenyl)-2-[4-(6,7-dihydro-5H-pyrrolo[2,3-d]pyrimidin-4-yl)-piperazin-1-yl]-ethylamine] | 25 to 100 nM | 101 to 500 nM
NCC(c1ccc(Cl)cc1)N1CCN(c2ncnc3c2CCCN3)CC1 (stereo not shown) [Compound A17, 2-(4-Chloro-phenyl)-2-[4-(5,6,7,8-tetrahydro-pyrido[2,3-d]pyrimidin-4-yl)-piperazin-1-yl]-ethylamine] | 101 to 500 nM | 25 to 100 nM
CN(C)CC(c1ccc(Cl)cc1)N1CCN(c2ncnc3c2CCN3)CC1 (stereo not shown) [Compound A7, {2-(4-Chlorophenyl)-2-[4-(6,7-dihydro-5H-pyrrolo[2,3-d]pyrimidin-4-yl)-piperazin-1-yl]-ethyl}-dimethylamine] | 101 to 500 nM | 101 to 500 nM
O=C1CNc2ncnc(N3CCN(C(CN4CCCCC4)c4ccc(F)c(Cl)c4)CC3)c2N1 (stereo not shown) [Compound A57] | > 1000 nM | > 1000 nM
NCC(c1ccc(Cl)cc1)N1CCN(c2ncnc3c2OCCN3)CC1 (stereo not shown) [Compound A11, 2-(4-Chlorophenyl)-2-[4-(7,8-dihydro-6H-pyrimido[5,4-b][1,4]oxazin-4-yl)-piperazin-1-yl]-ethylamine] | 501 to 1000 nM | 101 to 500 nM
NCC(c1ccc(C(F)(F)F)cc1)C1CCN(c2ccnc3c2CCN3)CC1 (stereo not shown) [Compound A2, 2-(1-(2,3-dihydro-1H-pyrrolo[2,3-b]pyridin-4-yl)piperidin-4-yl)-2-(4-(trifluoro-methyl)phenyl)ethanamine] | 25 to 100 nM | 25 to 100 nM
O=C1CNc2ncnc(N3CCN(C(CN4CCCCC4)c4ccc(Cl)cc4)CC3)c2N1 (stereo not shown) [Compound A32, 4-{4-[1-(4-chloro-phenyl)-2-(piperidin-yl)-ethyl]-piperazin-1-yl}-7,8-dihydro-5H-pteridin-6-one] | > 1000 nM | 501 to 1000 nM
CN(C)CC(c1ccc(F)cc1)N1CCN(c2ncnc3c2NC(=O)CN3)CC1 (stereo not shown) [Compound A24, 4-{4-[2-dimethylamino-1-(4-fluoro-phenyl)-ethyl]-piperazin-1-yl}-7,8-dihydro-5H-pteridin-6-one] | > 1000 nM | > 1000 nM
NCC(c1ccccc1Cl)N1CCN(c2ncnc3c2NC(=O)CN3)CC1 (stereo not shown) [Compound A39, 4-(4-(2-amino-1-(2-chlorophenyl)ethyl)piperazin-1-yl)-7,8-dihydropteridin-6(5H)-one] | > 1000 nM | > 1000 nM
